Measured values from patent US8729068B2, “Tetrahydrobenzothiophene compound” (Astellas Pharma Inc., priority 2010, dated 2014).

melting point: 186.8 °C
Structure (SMILES): O=C(O)c1ccc(CCc2ccc(NC(=O)c3c(NC(=O)c4cccc(S(=O)(=O)N(C5CC5)[C@H]5CC[C@@H](C(=O)O)CC5)c4)sc4c3CCCC4)cc2)cc1 [Example 5, 4-{2-[4-({[2-({3-[(cis-4-carboxycyclohexyl)(cyclopropyl)sulfamoyl]benzoyl}amino)-4,5,6,7-tetrahydro-1-benzothiophen-3-yl]carbonyl}amino)phenyl]ethyl}benzoic acid]
